The record followed here is patent publication US5834461A, “Tricyclic benzazepine vasopressin antagonists” (American Cyanamid Company, priority 1997, dated 1998).

Experiment [1] has as its system vasopressin V2. The experiment in a line: Vasopressin V2 Antagonist Activity in Conscious Hydrated Rats (diuretic effect). It counts as in vivo, normal Sprague-Dawley rats. The settings on record: AVP 0.4 μg/kg i.p. In a few lines: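 Conscious rats were dosed orally at 0.1–100 mg/kg, and AVP 0.4 μg/kg i.p. in peanut oil followed 1 h later. Urine volume, osmolality and Na/K/Cl were compared against AVP-treated controls, with non-AVP rats as water-loading controls.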

Experiment [2] concerns vasopressin V1. The experiment in a line: Vasopressin V1 Antagonist Activity in Conscious Rats (vasopressin vasopressor response). The class given is in vivo, rat (spontaneously hypertensive rats). In a few lines:
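Conscious rats had the ventral caudal tail artery cannulated into the lower abdominal aorta under local procaine anesthesia, plus a caudal vein cannula for intravenous dosing. Pulsatile blood pressure was recorded via a Statham P23Db transducer. Vasopressor responses to vasopressin injections were measured before and after compound dosing, with percent antagonism calculated relative to the pre-drug response taken as 100%.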

For experiment [3], the target named is T1, oxytocin receptors (rat uterus membranes) (Rattus norvegicus, UniProt P70536).
T1 construct: The resulting pellet containing the oxytocin receptors is resuspended; from tissue; host or cells: uterus membranes of DES-treated female Sprague-Dawley rats
T1 sequence (P70536 1-388): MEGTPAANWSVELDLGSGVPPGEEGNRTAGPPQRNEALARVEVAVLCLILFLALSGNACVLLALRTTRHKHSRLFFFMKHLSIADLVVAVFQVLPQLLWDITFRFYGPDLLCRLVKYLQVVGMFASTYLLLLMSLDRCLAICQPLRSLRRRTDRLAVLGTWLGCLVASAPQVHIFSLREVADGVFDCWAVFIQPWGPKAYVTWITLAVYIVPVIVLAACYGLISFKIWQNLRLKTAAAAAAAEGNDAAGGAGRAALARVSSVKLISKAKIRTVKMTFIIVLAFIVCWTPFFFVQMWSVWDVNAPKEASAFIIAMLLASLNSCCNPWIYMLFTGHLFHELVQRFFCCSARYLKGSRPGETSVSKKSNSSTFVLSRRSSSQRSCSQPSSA
Kind of experiment: Oxytocin Receptor Binding. Also on record: species or system female Sprague-Dawley rats. On the procedure: Female Sprague-Dawley rats weighing approximately 200-250 g are injected intramuscularly (i.m.) with 0.3 mg/kg of body weight of diethylstilbestrol (DES). The rats are sacrificed 18 hours later under pentobarbital anesthesia. The uteri are dissected out, cleaned of fat and connective tissues and rinsed in 50 ml of normal saline. The tissue pooled from six rats is homogenized in 50 ml of […] Tris.HCl, containing 0.5 mM dithiothreitol and 1.0 mM EDTA, adjusted to pH 7.4, using a polytron at setting 6 with three passes of 10 sec each. The homogenate is passed through two (2) layers of cheesecloth and the filtrate centrifuged at 1000×g for 10 min. The clear supernatant is removed and recentrifuged at 165,000×g for 30 min. The resulting pellet containing the oxytocin receptors is resuspended in 50.0 mM Tris.HCl containing 5.0 mM MgCl2 at pH 7.4, to give a protein concentration of 2.5 mg/ml of tissue suspension. This preparation is used in subsequent binding assays with [^3 H]Oxytocin.
Binding of 3,5-[^3 H]Oxytocin ([^3 H]OT) to its receptors is done in microtiter plates using [^3 H]OT, at various concentrations, in an assay buffer of 50.0 mM Tris.HCl, pH 7.4 and containing 5.0 mM MgCl2, and a mixture of protease inhibitors: BSA, 0.1 mg; aprotinin, 1.0 mg; 1,10-phenanthroline, 2.0 mg; […], 10.0 mg; and PMSF, 0.3 mg per 100 ml of buffer solution. Non-specific binding is determined in the presence of 1.0 uM unlabeled OT. The binding reaction is terminated after 60 min., at 22° C., by rapid filtration through glass fiber filters using a Brandel® cell harvester (Biomedical Research and Development Laboratories, Inc., Gaithersburg, Md.). Competition experiments are conducted at equilibrium using 1.0 nM [^3 H]OT and varying the concentration of the displacing agents. The concentrations of agent displacing 50% of [^3 H]OT at its sites (IC50) are calculated by a computer assisted LUNDON-2 program (LUNDON SOFTWARE INC., Ohio, USA).

By inhibition is commonly meant the relative decrease from the control value, in per cent. Higher therefore signals a response far below the control. The IC50 is the midpoint of a concentration-inhibition curve.

In the case of `Cc1ccccc1C(=O)Nc1ccc(C(=O)N2Cc3ccccc3Cc3ccccc32)cc1` [Example 2, N-[4-[(6,11-Dihydro-5H-dibenz[b,e]azepin-5-yl)carbonyl]phenyl]-2-methylbenzamide], the figures for the Osmolality in experiment [1] (3 mg/kg orally), in experiment [1] (10 mg/kg orally) and in experiment [1] (30 mg/kg orally) were 1235 ± 162 mOsm/kg, 408 ± 34 mOsm/kg and 401 ± 49 mOsm/kg, respectively. In addition, the “Urine Volume” value in experiment [1] (3 mg/kg orally) is 2.9 ± 0.5 ml/4 hrs; in experiment [1] (10 mg/kg orally), 15.2 ± 2.4 ml/4 hrs; in experiment [1] (30 mg/kg orally) it was 18.9 ± 1.7 ml/4 hrs. For the same molecule, in experiment [2] (10 mg/kg p.o.), the “MAX % Inhibition” value is reported as 65%. For the same molecule, in experiment [2] (10 mg/kg p.o.), the “Time of max % inhibition” value is 180 min. Moreover, the inhibition at 10 µM in experiment [3] is 73%. The same molecule gave an IC50 in experiment [3] (first part of Table V) of 2900 nM.

Turning to `Cc1ccccc1C(=O)Nc1c(C)cc(C(=O)N2Cc3ccccc3Cc3ccccc32)cc1C` [Example 258, N-[4-[(6,11-Dihydro-5H-dibenz[b,e]azepin-5-yl)-carbonyl]-2,6-dimethylphenyl]-2-methylbenzamide], in experiment [2] (30 mg/kg i.v.), the “MAX % Inhibition” value was 61% and the “Time of max % inhibition” value was found to be 60 min. The molecule also returned an inhibition at 10 µM in experiment [3] of 18%.

In the case of `Cc1c(F)cccc1C(=O)Nc1ccc(C(=O)N2Cc3ccccc3Cc3ccccc32)cc1Cl` [Example 262, N-[4-[(6,11-Dihydro-5H-dibenz[b,e]azepin-5-yl)-carbonyl]-2-chlorophenyl]-2-methyl-3-fluorobenzamide], in experiment [1] (10 mg/kg orally), the Osmolality came out at 899 mOsm/kg and the “Urine Volume” value is 6.8 ml/4 hrs. Besides, 10 µM produced 55% inhibition in experiment [3]. Also, the IC50 in experiment [3] (first part of Table V) was 6200 nM.

Turning to `COc1cc(C(=O)N2Cc3ccccc3Cc3ccccc32)ccc1NC(=O)c1ccc(Cl)cc1Cl` [Example 263, N-[4-[(6,11-Dihydro-5H-dibenz[b,e]azepin-5-yl)-carbonyl]-2-methoxyphenyl]-2,4-dichlorobenzamide], in experiment [2] (10 mg/kg i.v.), the “MAX % Inhibition” value came to 55% and the “Time of max % inhibition” value is 90 min. Moreover, the inhibition at 10 µM in experiment [3] turned out to be 94%. This molecule returned an IC50 in experiment [3] (first part of Table V) of 260 nM.

For the molecule `CC(C)COc1ccc([N+](=O)[O-])cc1C(=O)Nc1ccc(C(=O)N2Cc3ccccc3Cc3ccccc32)cc1` [Example 453], in experiment [1] (10 mg/kg orally), the Osmolality is 776 mOsm/kg and the “Urine Volume” value came to 9.4 ml/4 hrs. For the same molecule, the IC50 in experiment [3] (second part of Table V) amounted to 3300 nM.

Consider `Cc1nc2c(s1)CCN(C(=O)c1ccc(NC(=O)c3cc(F)ccc3C)cc1)c1ccccc1-2` [Example 534], for which, in experiment [1] (10 mg/kg orally), the Osmolality worked out at 695 mOsm/kg and the “Urine Volume” value was determined as 10.6 ml/4 hrs. For the same molecule, the inhibition at 10 µM in experiment [3] is 86%. The IC50 in experiment [3] (second part of Table V) stood at 940 nM.

`Cc1ccc(F)cc1C(=O)Nc1ccc(C(=O)N2CCc3c[nH]nc3-c3ccccc32)c(Cl)c1` [Example 581] gave an inhibition at 10 µM in experiment [3] of 95%. In experiment [3] (second part of Table V), the IC50 was found to be 475 nM.

`Cc1ccc(F)cc1C(=O)Nc1ccc(C(=O)N2CCc3c[nH]nc3-c3ccccc32)cc1` [Example 584, N-[4-[(4.5-Dihydropyrazolo[4,3-d][1]benzazepin-6(2H)-yl)carbonyl]phenyl]-5-fluoro-2-methylbenzamide]: at 10 µM the inhibition in experiment [3] was 100%. Moreover, in experiment [3] (second part of Table V), the IC50 is 170 nM.
